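Exposure lasted 48 hours, with cells grown in 96-well plates and compounds tested at five concentrations. TGI is the concentration that stops growth completely.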
Key:
Assay in all cases: NCI-60 cell line screen, 48 h
DU-145 prostate = test system: DU-145 prostate
COLO 205 colon = test system: COLO 205 colon
SF-539 CNS = test system: SF-539 CNS
ACHN renal = test system: ACHN renal
OVCAR-3 ovarian = test system: OVCAR-3 ovarian
SF-268 CNS = test system: SF-268 CNS
UACC-62 melanoma = test system: UACC-62 melanoma
SK-MEL-28 melanoma = test system: SK-MEL-28 melanoma
UACC-257 melanoma = test system: UACC-257 melanoma
NCI-H226 lung = test system: NCI-H226 lung
UO-31 renal = test system: UO-31 renal
SNB-19 CNS = test system: SNB-19 CNS
CCRF-CEM leukemia = test system: CCRF-CEM leukemia
MOLT-4 leukemia = test system: MOLT-4 leukemia
NCI-H23 lung = test system: NCI-H23 lung
SK-OV-3 ovarian = test system: SK-OV-3 ovarian
MDA-MB-435 = test system: MDA-MB-435
T-47D breast = test system: T-47D breast
PC-3 prostate = test system: PC-3 prostate
MDA-MB-231 breast = test system: MDA-MB-231 breast
HCT-15 colon = test system: HCT-15 colon
U251 CNS = test system: U251 CNS
SN12C renal = test system: SN12C renal
K-562 leukemia = test system: K-562 leukemia
NCI-H522 lung = test system: NCI-H522 lung
M14 melanoma = test system: M14 melanoma
LOX IMVI melanoma = test system: LOX IMVI melanoma
MCF7 breast = test system: MCF7 breast
MALME-3M melanoma = test system: MALME-3M melanoma
MDA-N = test system: MDA-N
EKVX NSCLC = test system: EKVX NSCLC
HS 578T breast = test system: HS 578T breast
A549 NSCLC = test system: A549 NSCLC
BT-549 breast = test system: BT-549 breast
OVCAR-8 ovarian = test system: OVCAR-8 ovarian
NCI/ADR-RES ovarian = test system: NCI/ADR-RES ovarian
TK-10 renal = test system: TK-10 renal
HCT-116 colon = test system: HCT-116 colon
A498 renal = test system: A498 renal
RXF 393 renal = test system: RXF 393 renal
SW-620 colon = test system: SW-620 colon
OVCAR-4 ovarian = test system: OVCAR-4 ovarian
HT29 colon = test system: HT29 colon
OVCAR-5 ovarian = test system: OVCAR-5 ovarian
HCC-2998 colon = test system: HCC-2998 colon
SF-295 CNS = test system: SF-295 CNS
KM12 colon = test system: KM12 colon
SK-MEL-5 melanoma = test system: SK-MEL-5 melanoma
NCI-H460 lung = test system: NCI-H460 lung
HL-60(TB) leukemia = test system: HL-60(TB) leukemia
CAKI-1 renal = test system: CAKI-1 renal
786-0 renal = test system: 786-0 renal
HOP-92 NSCLC = test system: HOP-92 NSCLC
SK-MEL-2 melanoma = test system: SK-MEL-2 melanoma
IGROV1 ovarian = test system: IGROV1 ovarian
SNB-75 CNS = test system: SNB-75 CNS
RPMI-8226 leukemia = test system: RPMI-8226 leukemia
HOP-62 NSCLC = test system: HOP-62 NSCLC
SR leukemia = test system: SR leukemia

O=C(OCc1ccc([N+](=O)[O-])cc1)N1c2ccccc2[C@@]23O[C@]24CCC[C@H]3C#C/C=C\C#C[C@H]14
TGI (DU-145 prostate): > 100 µM | TGI (COLO 205 colon): > 100 µM | TGI (SF-539 CNS): > 100 µM | TGI (ACHN renal): > 100 µM | TGI (OVCAR-3 ovarian): > 100 µM | TGI (SF-268 CNS): > 100 µM | TGI (UACC-62 melanoma): > 100 µM | TGI (SK-MEL-28 melanoma): > 100 µM | TGI (UACC-257 melanoma): > 100 µM | TGI (NCI-H226 lung): > 100 µM | TGI (UO-31 renal): > 100 µM | TGI (SNB-19 CNS): > 100 µM | TGI (CCRF-CEM leukemia): > 100 µM | TGI (MOLT-4 leukemia): > 100 µM | TGI (NCI-H23 lung): > 100 µM | TGI (SK-OV-3 ovarian): > 100 µM | TGI (MDA-MB-435): > 100 µM | TGI (T-47D breast): > 100 µM | TGI (PC-3 prostate): > 100 µM | TGI (MDA-MB-231 breast): > 100 µM | TGI (HCT-15 colon): > 100 µM | TGI (U251 CNS): > 100 µM | TGI (SN12C renal): > 100 µM | TGI (K-562 leukemia): > 100 µM | TGI (NCI-H522 lung): > 100 µM | TGI (M14 melanoma): > 100 µM | TGI (LOX IMVI melanoma): > 100 µM | TGI (MCF7 breast): > 100 µM | TGI (MALME-3M melanoma): > 100 µM | TGI (MDA-N): > 100 µM | TGI (EKVX NSCLC): > 100 µM | TGI (HS 578T breast): > 100 µM | TGI (A549 NSCLC): > 100 µM | TGI (BT-549 breast): > 100 µM | TGI (OVCAR-8 ovarian): > 100 µM | TGI (NCI/ADR-RES ovarian): > 100 µM | TGI (TK-10 renal): > 100 µM | TGI (HCT-116 colon): > 100 µM | TGI (A498 renal): > 100 µM | TGI (RXF 393 renal): > 100 µM | TGI (SW-620 colon): > 100 µM | TGI (OVCAR-4 ovarian): > 100 µM | TGI (HT29 colon): > 100 µM | TGI (OVCAR-5 ovarian): > 100 µM | TGI (HCC-2998 colon): > 100 µM | TGI (SF-295 CNS): > 100 µM | TGI (KM12 colon): > 100 µM | TGI (SK-MEL-5 melanoma): > 100 µM | TGI (NCI-H460 lung): > 100 µM | TGI (HL-60(TB) leukemia): > 100 µM | TGI (CAKI-1 renal): > 100 µM | TGI (786-0 renal): > 100 µM | TGI (HOP-92 NSCLC): > 100 µM | TGI (SK-MEL-2 melanoma): > 100 µM | TGI (IGROV1 ovarian): > 100 µM

OCCCNc1ncnc2[nH]ncc12
TGI (DU-145 prostate): > 100 µM | TGI (COLO 205 colon): > 100 µM | TGI (SF-539 CNS): > 100 µM | TGI (ACHN renal): > 100 µM | TGI (OVCAR-3 ovarian): > 100 µM | TGI (SF-268 CNS): > 100 µM | TGI (UACC-62 melanoma): > 100 µM | TGI (SK-MEL-28 melanoma): > 100 µM | TGI (UACC-257 melanoma): > 100 µM | TGI (NCI-H226 lung): > 100 µM | TGI (UO-31 renal): > 100 µM | TGI (SNB-19 CNS): > 100 µM | TGI (CCRF-CEM leukemia): > 100 µM | TGI (MOLT-4 leukemia): > 100 µM | TGI (NCI-H23 lung): > 100 µM | TGI (SK-OV-3 ovarian): > 100 µM | TGI (MDA-MB-435): > 100 µM | TGI (SNB-75 CNS): > 100 µM | TGI (T-47D breast): > 100 µM | TGI (PC-3 prostate): > 100 µM | TGI (MDA-MB-231 breast): > 100 µM | TGI (HCT-15 colon): > 100 µM | TGI (U251 CNS): > 100 µM | TGI (SN12C renal): > 100 µM | TGI (K-562 leukemia): > 100 µM | TGI (NCI-H522 lung): > 100 µM | TGI (M14 melanoma): > 100 µM | TGI (LOX IMVI melanoma): > 100 µM | TGI (MCF7 breast): > 100 µM | TGI (MALME-3M melanoma): > 100 µM | TGI (MDA-N): > 100 µM | TGI (EKVX NSCLC): > 100 µM | TGI (HS 578T breast): > 100 µM | TGI (A549 NSCLC): > 100 µM | TGI (BT-549 breast): > 100 µM | TGI (OVCAR-8 ovarian): > 100 µM | TGI (NCI/ADR-RES ovarian): > 100 µM | TGI (TK-10 renal): > 100 µM | TGI (HCT-116 colon): > 100 µM | TGI (A498 renal): > 100 µM | TGI (RXF 393 renal): > 100 µM | TGI (SW-620 colon): > 100 µM | TGI (OVCAR-4 ovarian): > 100 µM | TGI (RPMI-8226 leukemia): > 100 µM | TGI (HT29 colon): > 100 µM | TGI (OVCAR-5 ovarian): > 100 µM | TGI (HCC-2998 colon): > 100 µM | TGI (SF-295 CNS): > 100 µM | TGI (KM12 colon): > 100 µM | TGI (SK-MEL-5 melanoma): > 100 µM | TGI (NCI-H460 lung): > 100 µM | TGI (HOP-62 NSCLC): > 100 µM | TGI (HL-60(TB) leukemia): > 100 µM | TGI (CAKI-1 renal): > 100 µM | TGI (786-0 renal): > 100 µM | TGI (HOP-92 NSCLC): > 100 µM | TGI (SK-MEL-2 melanoma): > 100 µM | TGI (IGROV1 ovarian): > 100 µM

O=C(/C=C/c1ccc(C(F)(F)F)cc1)c1c([O-])on[n+]1-c1ccccc1
TGI (DU-145 prostate): 7.17 µM | TGI (COLO 205 colon): 4.91 µM | TGI (SF-539 CNS): 3.98 µM | TGI (ACHN renal): 2.94 µM | TGI (OVCAR-3 ovarian): 3.37 µM | TGI (SF-268 CNS): > 26.2 µM | TGI (UACC-62 melanoma): 2.81 µM | TGI (SK-MEL-28 melanoma): 2.89 µM | TGI (UACC-257 melanoma): 6.93 µM | TGI (NCI-H226 lung): > 29.9 µM | TGI (UO-31 renal): 4 µM | TGI (SNB-19 CNS): 15.5 µM | TGI (CCRF-CEM leukemia): 0.188 µM | TGI (MOLT-4 leukemia): 2.04 µM | TGI (NCI-H23 lung): 10 µM | TGI (SK-OV-3 ovarian): > 63.4 µM | TGI (SNB-75 CNS): 5.87 µM | TGI (T-47D breast): 3.82 µM | TGI (PC-3 prostate): 9.2 µM | TGI (MDA-MB-231 breast): 20 µM | TGI (HCT-15 colon): 3.12 µM | TGI (SN12C renal): 7.71 µM | TGI (K-562 leukemia): > 100 µM | TGI (M14 melanoma): 6.6 µM | TGI (LOX IMVI melanoma): 1.56 µM | TGI (MCF7 breast): > 34.5 µM | TGI (MALME-3M melanoma): > 100 µM | TGI (MDA-N): 8.69 µM | TGI (EKVX NSCLC): 5.83 µM | TGI (HS 578T breast): > 32.3 µM | TGI (A549 NSCLC): 12.3 µM | TGI (BT-549 breast): 3.04 µM | TGI (OVCAR-8 ovarian): 5.38 µM | TGI (NCI/ADR-RES ovarian): 4.18 µM | TGI (TK-10 renal): 3.07 µM | TGI (HCT-116 colon): 3.85 µM | TGI (A498 renal): 14.8 µM | TGI (RXF 393 renal): 2.68 µM | TGI (OVCAR-4 ovarian): 48.9 µM | TGI (HT29 colon): 2.25 µM | TGI (OVCAR-5 ovarian): 8.06 µM | TGI (HCC-2998 colon): 4.18 µM | TGI (SF-295 CNS): 20.2 µM | TGI (KM12 colon): 7.1 µM | TGI (SR leukemia): 0.846 µM | TGI (SK-MEL-5 melanoma): 12.7 µM | TGI (NCI-H460 lung): 6.44 µM | TGI (HOP-62 NSCLC): 13 µM | TGI (HL-60(TB) leukemia): 0.459 µM | TGI (CAKI-1 renal): 0.879 µM | TGI (786-0 renal): 1.71 µM | TGI (HOP-92 NSCLC): 3.06 µM | TGI (SK-MEL-2 melanoma): 9.64 µM | TGI (IGROV1 ovarian): 4.02 µM

Reference: PubChem BioAssay (NCI)
